Experimental data: ChEMBL document CHEMBL3120129, “Enantiomeric atropisomers inhibit HCV polymerase and/or HIV matrix: characterizing hindered bond rotations and target selectivity” (J Med Chem, 2014)

Experiments:
[1] = Inhibition of HCV genotype 1b hexa-histidine-tagged NS5B polymerase expressed in baculovirus infected cell system; parameters: species or system Hepatitis C virus subtype 1b
Hepatitis C virus = test: Antiviral activity against HCV genotype 1b by HCV replicon assay; type: functional, organism-based, Hepacivirus hominis
[2] = Inhibition of HIV1 NL-4.3 matrix (1 to 132) expressed in BL21(DE3) cells using [PI(4,5)P2]2 as substrate after 30 mins by fluorescence polarization assay; parameters: species or system Human immunodeficiency virus 1
[3] = Apparent half life of the compound assessed as atropisomer interconversion by HPLC analysis; type: physicochemical; settings: read-out: t1/2(app)
[4] = system: Human immunodeficiency virus 1; test: Antiviral activity against HIV1 NL-4.3; type: functional, organism-based; settings: Human immunodeficiency virus 1, NL-4.3

Row | SMILES | IC50 [1] [µM] | EC50 (Hepatitis C virus) [µM] | IC50 [2] [µM] | half-life [3] [h] | EC50 [4] [µM]
1 | CC(C)N(c1cc(F)c(Oc2ncc(CCn3nccn3)cc2C(F)(F)F)cc1C(=O)O)C(=O)[C@H]1CC[C@H](C)CC1 | 0.068 |  |  |  | 
2 | CN(c1ccc(Oc2ccccc2C(F)(F)F)cc1C(=O)O)C(=O)[C@H]1CC[C@H](C)CC1 | 0.2 | 1.1 | > 100 |  | 
3 | Cc1cc(OCc2cnc(Oc3ccc(N(C(=O)[C@H]4CC[C@H](C)CC4)C(C)C)c(C(=O)O)c3)c(C(F)(F)F)c2)c2ccccc2n1 |  |  |  | 1.15 | 
4 | COC[C@H](C)N(c1cc(F)c(Oc2ncc(CCn3nccn3)cc2C(F)(F)F)cc1C(=O)O)C(=O)[C@H]1CC[C@H](C)CC1 | 0.068 |  |  |  | 
5 | COc1ccc(C(=O)Nc2ccc(Oc3ccc(N(C(=O)[C@H]4CC[C@H](C)CC4)C(C)C)c(C(=O)O)c3)cc2)cc1 | 0.63 | 0.95 | 3.4 |  | 2.8
6 | CC(C)N(c1ccc(Oc2ccccc2C(F)(F)F)cc1C(=O)O)C(=O)[C@H]1CC[C@H](C)CC1 | 0.19 |  | > 175 |  | 
7 | COC[C@H](C)N(c1ccc(Oc2ncc(CCn3nccn3)cc2C(F)(F)F)c(F)c1)C(=O)[C@H]1CC[C@H](C)CC1 | 56 |  |  |  | 
8 | C[C@H]1CC[C@H](C(=O)Nc2ccc(Oc3ccccc3C(F)(F)F)cc2C(=O)O)CC1 | 15 |  | > 95 |  | 
